Target: T1, human DP2 receptor (Homo sapiens, UniProt Q9Y5Y4)
T1 construct: expressed in transfected cells; host or cells: CHO-K1 FLP-In (Invitrogen, catalog no. R758-07), stably transfected
T1 sequence (Q9Y5Y4 1-395): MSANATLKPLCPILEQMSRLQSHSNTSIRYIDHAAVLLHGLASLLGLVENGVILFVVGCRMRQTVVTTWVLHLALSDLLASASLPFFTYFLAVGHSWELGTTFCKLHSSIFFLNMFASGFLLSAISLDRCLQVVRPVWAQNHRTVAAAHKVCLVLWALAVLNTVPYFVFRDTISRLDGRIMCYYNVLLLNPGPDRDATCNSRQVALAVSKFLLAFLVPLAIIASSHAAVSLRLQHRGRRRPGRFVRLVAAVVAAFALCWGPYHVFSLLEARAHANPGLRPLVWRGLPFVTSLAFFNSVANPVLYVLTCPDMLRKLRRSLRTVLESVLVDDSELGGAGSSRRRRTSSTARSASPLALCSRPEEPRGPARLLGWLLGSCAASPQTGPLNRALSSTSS
Test: Prostaglandin D2 binding inhibition assay (scintillation proximity assay, 3H PGD2, membranes of transfected CHO cells)
Conditions: SPA, 5.5 nM 3H PGD2, CHO-K1 FLP-In human DP2 membranes; upper limit determinable 30 μM; read-out: IC50 ranges for inhibition of PGD2 binding to human DP2
Protocol: The ability of compounds to inhibit binding of prostaglandin D2 (PGD2) to the human DP2 receptor was measured using a scintillation proximity assay (SPA). Chinese Hamster Ovary FLP-In cell lines (CHO-K1 FLP-In, Invitrogen, catalog no. R758-07) were stably transfected with the human DP2 gene (Genebank: AY507142). Cell lines were grown in suspension in EX-CELL 302 CHO Serum-free medium (Sigma, catalog no. 14324C) supplemented with 1% Fetal Bovine Serum (Invitrogen no. 10099-141), 2 mM L-glutamine (Invitrogen, catalog no. 25030-081) and 0.5 mg/ml Hygromycin B (Invitrogen, catalog no. 10687-010). Cells were collected by centrifugation in a Beckman Coulter Allegra X-12R centrifuge at 150×g for 5 minutes at room temperature.
Membranes from transfected cells were isolated for binding assays. Cell pellets containing approximately 2×10^9 cells were resuspended in 35 ml of cold membrane homogenization buffer (10 mM Tris (Sigma, catalog no. T2663), 1 mM EDTA (Fluka BioChemika no. 03690), and 70 μl of protease inhibitor cocktail (Sigma, catalog no. P8340)). Cells were homogenized with 30 strokes of a dounce homogenizer (Kontes, catalog no. 885303-0040), and the solution centrifuged at 200×g for 10 minutes. The supernatant was transferred to a 50 ml Oakridge tube (Beckman, catalog no. 357000) and centrifuged in a Beckman Coulter Avanti J-26×PI centrifuge with a JA30.50 rotor at 81,000×g for 1 hour at 15° C. The pellet was resuspended in membrane storage buffer (50 mM Tris (Sigma, catalog no. T2663), 2.5 mM EDTA (Fluka BioChemika no. 03690), 5 mM magnesium chloride (Sigma, catalog no. M1028), 100 mg/ml sucrose (Sigma, catalog no. 50389) and a 1:500 dilution of protease inhibitor cocktail (Sigma, catalog no. P8340)) and the total protein was quantitated using a BCA protein measurement kit (Pierce, catalog no. 23225). Aliquots were frozen at −80° C. until used. Compounds were tested for their ability to inhibit PGD2 binding to the purified membranes. 5 μg of the purified membranes, 0.25 mg of wheat germ agglutinin PVT SPA beads (GE Healthcare, catalog no. RPNQ0060) and 5.5 nM of ^3H PGD2 (PerkinElmer, catalog no. NET-616) were mixed in assay buffer ((50 mM Tris (Sigma, catalog no. T2663), 10 mM magnesium chloride (Sigma, catalog no. M1028), 100 mM sodium chloride (Sigma, catalog no. S6546) and 0.1% bovine serum albumin (Sigma, catalog no. A2153)). Using a Multidrop bulk dispenser, 75 μl of the assay mixture was dispensed in Optiplates (PerkinElmer, catalog no. 6007299) containing the compounds to be tested. After a 60 minute incubation period at room temperature, the plates were read on a PerkinElmer Topcount NXT HTS, and individual wells were quantitated as counts per minute (CPM). Data were expressed as a percent of the difference between the maximum and minimum responses. IC50 values (the concentration of compound producing 50% of the maximal response) were determined using a two-parameter non-linear regression algorithm analyzed using CambridgeSoft Bioassay software. Table 2 gives the range of IC50 values for claimed compounds in the binding assay.

Row | SMILES | IC50 [µM]
1 | COc1cccc(S(=O)(=O)N2CCC(n3c(=O)n(CC(=O)O)c4cccnc43)CC2)c1 [Compound 78, 2-(3-(1-(3-methoxyphenyl-sulfonyl)piperidin-4-yl)-2-oxo-2,3-dihydro-1H-imidazo[4,5-b]pyridin-1-yl)acetic acid] | 1 to 10
2 | O=C(O)Cn1c(=O)n(C2CCN(S(=O)(=O)c3ccccc3)CC2)c2ncccc21 [Compound 79, 2-(2-oxo-3-(1-(phenylsulfonyl)piperidin-4-yl)-2,3-dihydro-1H-imidazo[4,5-b]pyridin-1-yl)acetic acid] | 1 to 10
3 | O=C(O)Cn1c(=O)n(C2CCN(S(=O)(=O)c3ccc(-c4ccccc4)cc3)CC2)c2ncccc21 [Compound 81, 2-(3-(1-(biphenyl-4-ylsulfonyl)piperidin-4-yl)-2-oxo-2,3-dihydro-1H-imidazo[4,5-b]pyridin-1-yl)acetic acid] | 1 to 10
4 | O=C(O)Cn1c(=O)n(C2CCN(S(=O)(=O)c3cc(Cl)ccc3Cl)CC2)c2ncccc21 [Compound 82, 2-(3-(1-(2,5-dichlorophenylsulfonyl)piperidin-4-yl)-2-oxo-2,3-dihydro-1H-imidazo[4,5-b]pyridin-1-yl)acetic acid] | < 1
5 | O=C(O)Cn1c(=O)n(C2CCN(S(=O)(=O)c3cc(Cl)cc(Cl)c3)CC2)c2ncccc21 [Compound 84, 2-(3-(1-(3,5-dichlorophenyl-sulfonyl)piperidin-4-yl)-2-oxo-2,3-dihydro-1H-imidazo[4,5-b]pyridin-1-yl)acetic acid] | 1 to 10
6 | O=C(O)Cn1c(=O)n(C2CCN(S(=O)(=O)c3ccccc3C(F)(F)F)CC2)c2ncccc21 [Compound 85, 2-(2-oxo-3-(1-(2-(trifluoromethyl)phenylsulfonyl)piperidin-4-yl)-2,3-dihydro-1H-imidazo[4,5-b]pyridin-1-yl)acetic acid] | < 1
7 | O=C(O)Cn1c(=O)n(C2CCN(S(=O)(=O)c3ccc(Br)cc3F)CC2)c2ncccc21 [Compound 87, 2-(3-(1-(4-bromo-2-fluorophenyl-sulfonyl)piperidin-4-yl)-2-oxo-2,3-dihydro-1H-imidazo[4,5-b]pyridin-1-yl)acetic acid] | < 1
8 | O=C(O)Cn1c(=O)n(C2CCN(S(=O)(=O)c3ccc(F)c(Cl)c3)CC2)c2ncccc21 [Compound 88, 2-(3-(1-(3-chloro-4-fluorophenyl-sulfonyl)piperidin-4-yl)-2-oxo-2,3-dihydro-1H-imidazo[4,5-b]pyridin-1-yl)acetic acid] | 1 to 10
9 | COc1ccc(S(=O)(=O)N2CCC(n3c(=O)n(CC(=O)O)c4cccnc43)CC2)cc1 [Compound 89, 2-(3-(1-(4-methoxyphenylsulfonyl)piperidin-4-yl)-2-oxo-2,3-dihydro-1H-imidazo[4,5-b]pyridin-1-yl)acetic acid] | 1 to 10
10 | O=C(O)Cn1c(=O)n(C2CCN(S(=O)(=O)c3cc(F)c(F)cc3F)CC2)c2ncccc21 [Compound 92, 2-(2-oxo-3-(1-(2,4,5-trifluoro-phenylsulfonyl)piperidin-4-yl)-2,3-dihydro-1H-imidazo[4,5-b]pyridin-1-yl)acetic acid] | 1 to 10
11 | Cc1c(F)cccc1S(=O)(=O)N1CCC(n2c(=O)n(CC(=O)O)c3cccnc32)CC1 [Compound 96, 2-(3-(1-(3-fluoro-2-methylphenylsulfonyl)piperidin-4-yl)-2-oxo-2,3-dihydro-1H-imidazo[4,5-b]pyridin-1-yl)acetic acid] | < 1
12 | COc1ccccc1S(=O)(=O)N1CCC(n2c(=O)n(CC(=O)O)c3cccnc32)CC1 [Compound 97, 2-(3-(1-(2-methoxyphenylsulfonyl)piperidin-4-yl)-2-oxo-2,3-dihydro-1H-imidazo[4,5-b]pyridin-1-yl)acetic acid] | 1 to 10
13 | CCCCOc1ccc(S(=O)(=O)N2CCC(n3c(=O)n(CC(=O)O)c4cccnc43)CC2)cc1 [Compound 98, 2-(3-(1-(4-butoxyphenylsulfonyl)piperidin-4-yl)-2-oxo-2,3-dihydro-1H-imidazo[4,5-b]pyridin-1-yl)acetic acid] | < 1
14 | CCOc1ccc(S(=O)(=O)N2CCC(n3c(=O)n(CC(=O)O)c4cccnc43)CC2)cc1 [Compound 99, 2-(3-(1-(4-ethoxyphenylsulfonyl)piperidin-4-yl)-2-oxo-2,3-dihydro-1H-imidazo[4,5-b]pyridin-1-yl)acetic acid] | 1 to 10
15 | CS(=O)(=O)c1ccccc1S(=O)(=O)N1CC[C@@H](n2c(=O)n(CC(=O)O)c3cccnc32)C1 [Compound 100, (R)-2-(3-(1-(2-(methylsulfonyl)phenylsulfonyl)pyrrolidin-3-yl)-2-oxo-2,3-dihydro-1H-imidazo[4,5-b]pyridin-1-yl)acetic acid] | < 1

The next lines start with the values.

Row | IC50 [µM] | SMILES
16 | 1 to 10 | O=C(O)Cn1c(=O)n(C2CCN(S(=O)(=O)c3ccc(Cl)s3)CC2)c2ncccc21 [Compound 80, 2-(3-(1-(5-chlorothiophen-2-yl-sulfonyl)piperidin-4-yl)-2-oxo-2,3-dihydro-1H-imidazo[4,5-b]pyridin-1-yl)acetic acid]
17 | < 1 | O=C(O)Cn1c(=O)n(C2CCN(S(=O)(=O)c3cc(F)c(Br)cc3F)CC2)c2ncccc21 [Compound 83, 2-(3-(1-(4-bromo-2,5-difluorophenyl-sulfonyl)piperidin-4-yl)-2-oxo-2,3-dihydro-1H-imidazo[4,5-b]pyridin-1-yl)acetic acid]
18 | < 1 | O=C(O)Cn1c(=O)n(C2CCN(S(=O)(=O)c3cc(Cl)c(F)cc3F)CC2)c2ncccc21 [Compound 86, 2-(3-(1-(5-chloro-2,4-difluorophenyl-sulfonyl)piperidin-4-yl)-2-oxo-2,3-dihydro-1H-imidazo[4,5-b]pyridin-1-yl)acetic acid]
19 | > 30 | CS(=O)(=O)c1ccc(S(=O)(=O)N2CCC(n3c(=O)n(CC(=O)O)c4cccnc43)CC2)cc1 [Compound 90, 2-(3-(1-(4-(methylsulfonyl)phenyl-sulfonyl)piperidin-4-yl)-2-oxo-2,3-dihydro-1H-imidazo[4,5-b]pyridin-1-yl)acetic acid]
20 | < 1 | O=C(O)Cn1c(=O)n(C2CCN(S(=O)(=O)c3cc(F)c(Cl)cc3F)CC2)c2ncccc21 [Compound 91, 2-(3-(1-(4-chloro-2,5-difluoro-phenylsulfonyl)piperidin-4-yl)-2-oxo-2,3-dihydro-1H-imidazo[4,5-b]pyridin-1-yl)acetic acid]
21 | < 1 | O=C(O)Cn1c(=O)n(C2CCN(S(=O)(=O)c3ccc(F)cc3F)CC2)c2ncccc21 [Compound 93, 2-(3-(1-(2,4-difluorophenyl-sulfonyl)piperidin-4-yl)-2-oxo-2,3-dihydro-1H-imidazo[4,5-b]pyridin-1-yl)acetic acid]
22 | < 1 | Cc1ccccc1S(=O)(=O)N1CCC(n2c(=O)n(CC(=O)O)c3cccnc32)CC1 [Compound 94, 2-(2-oxo-3-(1-(o-tolylsulfonyl)piperidin-4-yl)-2,3-dihydro-1H-imidazo[4,5-b]pyridin-1-yl)acetic acid]
23 | 1 to 10 | Cc1cc(S(=O)(=O)N2CCC(n3c(=O)n(CC(=O)O)c4cccnc43)CC2)ccc1F [Compound 95, 2-(3-(1-(4-fluoro-3-methylphenylsulfonyl)piperidin-4-yl)-2-oxo-2,3-dihydro-1H-imidazo[4,5-b]pyridin-1-yl)acetic acid]
